From the CheMixHub viscosity set
± gives the uncertainty stated by the source.

Assay: xn = mol fraction of the nth substance listed

C=CC(=O)OCCCC + C1CCOC1
viscosity [mPa·s], 101 kPa
Conditions	293.15 K	298.15 K	303.15 K	308.15 K	313.15 K	318.15 K
x2 = 0.0712	0.8609 ± 0.035	0.8036 ± 0.033	0.7505 ± 0.031	0.7019 ± 0.029	0.6569 ± 0.027	0.6143 ± 0.025
x2 = 0.1406	0.8246 ± 0.034	0.7708 ± 0.031	0.721 ± 0.029	0.6751 ± 0.028	0.6321 ± 0.026	0.5913 ± 0.024
x2 = 0.208	0.7908 ± 0.032	0.7403 ± 0.03	0.6935 ± 0.028	0.65 ± 0.026	0.609 ± 0.025	0.5698 ± 0.023
x2 = 0.2779	0.7572 ± 0.031	0.71 ± 0.029	0.6661 ± 0.027	0.6249 ± 0.025	0.5858 ± 0.024	0.5482 ± 0.022
x2 = 0.3685	0.7159 ± 0.029	0.6727 ± 0.027	0.6323 ± 0.026	0.594 ± 0.024	0.5571 ± 0.023	0.5213 ± 0.021
x2 = 0.4339	0.6875 ± 0.028	0.6471 ± 0.026	0.609 ± 0.025	0.5727 ± 0.023	0.5374 ± 0.022	0.5028 ± 0.021
x2 = 0.4996	0.6603 ± 0.027	0.6225 ± 0.025	0.5867 ± 0.024	0.5522 ± 0.022	0.5182 ± 0.021	0.4848 ± 0.02
x2 = 0.5642	0.6347 ± 0.026	0.5995 ± 0.024	0.5657 ± 0.023	0.5328 ± 0.022	0.5002 ± 0.02	0.4677 ± 0.019
x2 = 0.6426	0.6053 ± 0.025	0.5729 ± 0.023	0.5415 ± 0.022	0.5104 ± 0.021	0.4792 ± 0.019	0.4478 ± 0.018
x2 = 0.7208	0.5778 ± 0.024	0.548 ± 0.022	0.5187 ± 0.021	0.4893 ± 0.02	0.4592 ± 0.019	0.4288 ± 0.017
x2 = 0.7956	0.553 ± 0.022	0.5256 ± 0.021	0.4981 ± 0.02	0.4701 ± 0.019	0.4411 ± 0.018	0.4115 ± 0.017
x2 = 0.8642	0.5316 ± 0.022	0.5063 ± 0.021	0.4803 ± 0.019	0.4534 ± 0.018	0.4253 ± 0.017	0.3964 ± 0.016
x2 = 0.9322	0.5117 ± 0.021	0.4882 ± 0.02	0.4637 ± 0.019	0.4378 ± 0.018	0.4103 ± 0.017	0.3819 ± 0.015

Cc1ccccc1O + CC(=O)c1ccccc1
303.15 K, 101 kPa
Conditions	viscosity [mPa·s]
x2 = 0.11	5.369 ± 0.13
x2 = 0.2168	4.793 ± 0.11
x2 = 0.3155	4.305 ± 0.086
x2 = 0.4164	3.832 ± 0.069
x2 = 0.4556	3.653 ± 0.064
x2 = 0.5575	3.206 ± 0.05
x2 = 0.6919	2.635 ± 0.035
x2 = 0.7608	2.358 ± 0.029
x2 = 0.9488	1.668 ± 0.016

CCOC(=O)CC + CCCCCCC
viscosity [mPa·s], 101.3 kPa
Conditions	308.15 K	318.15 K
x1 = 0.0514	0.356 ± 0.004	0.325 ± 0.003
x1 = 0.0967	0.36 ± 0.004	0.329 ± 0.003
x1 = 0.2165	0.369 ± 0.004	0.341 ± 0.003
x1 = 0.3027	0.376 ± 0.004	0.35 ± 0.004
x1 = 0.4024	0.386 ± 0.004	0.36 ± 0.004
x1 = 0.5033	0.396 ± 0.004	0.372 ± 0.004
x1 = 0.588	0.406 ± 0.004	0.383 ± 0.004
x1 = 0.7003	0.421 ± 0.004	0.397 ± 0.004
x1 = 0.7994	0.435 ± 0.004	0.408 ± 0.004
x1 = 0.9003	0.45 ± 0.004	0.421 ± 0.004
x1 = 0.9484	0.458 ± 0.004	0.428 ± 0.004

CC1CCC(C)O1 (stereo unspecified) + Brc1ccccc1
viscosity [mPa·s], 101 kPa
Conditions	x1 = 0.0965	x1 = 0.2006	x1 = 0.3011	x1 = 0.4016	x1 = 0.4921
298.15 K	1.003 ± 0.0068	0.941 ± 0.0064	0.8808 ± 0.006	0.8196 ± 0.0056	0.7658 ± 0.0053
313.15 K	0.833 ± 0.0059	0.7831 ± 0.0056	0.7338 ± 0.0052	0.6848 ± 0.0049	0.6411 ± 0.0047

CC(C)CO + OCC(O)CO
viscosity [mPa·s], 101.33 kPa
Conditions	x2 = 0.1006	x2 = 0.2008	x2 = 0.2991	x2 = 0.3991	x2 = 0.5003	x2 = 0.6005	x2 = 0.7001	x2 = 0.7997	x2 = 0.8994
298.15 K	4.625 ± 0.47	7.894 ± 0.81	14.39 ± 1.5	26.58 ± 2.8	56.03 ± 5.9	118.3 ± 12	233.2 ± 25	395.9 ± 42	595.4 ± 64
308.15 K	3.192 ± 0.33	5.58 ± 0.57	9.274 ± 0.95	15.86 ± 1.6	30.35 ± 3.2	59.4 ± 6.2	110.6 ± 11	179.4 ± 19	269.1 ± 28
318.15 K	2.33 ± 0.24	3.788 ± 0.39	6.116 ± 0.62	9.794 ± 1	17.19 ± 1.8	32.13 ± 3.3	55.06 ± 5.6	86.54 ± 8.8	120.9 ± 12

CC(C)CO + CS(C)=O
viscosity [mPa·s], 101.3 kPa
Conditions	x2 = 0.0944	x2 = 0.1917	x2 = 0.289	x2 = 0.3884	x2 = 0.4863	x2 = 0.5874	x2 = 0.6887	x2 = 0.7913	x2 = 0.8951
298.15 K	2.785 ± 0.12	2.366 ± 0.11	2.056 ± 0.094	1.934 ± 0.089	1.879 ± 0.087	1.853 ± 0.086	1.858 ± 0.086	1.891 ± 0.087	1.918 ± 0.089
303.15 K	2.424 ± 0.11	2.071 ± 0.095	1.847 ± 0.085	1.754 ± 0.082	1.703 ± 0.079	–	1.686 ± 0.079	1.693 ± 0.079	1.733 ± 0.081

CCCCCC + CCCO
viscosity [mPa·s]
Conditions	298.15 K	308.15 K
100 kPa, x1 = 0.0603	1.619 ± 0.021	–
100 kPa, x1 = 0.0992	1.44 ± 0.019	–
100 kPa, x1 = 0.2086	1.07 ± 0.014	–
100 kPa, x1 = 0.4056	0.6737 ± 0.0086	–
100 kPa, x1 = 0.5016	0.5493 ± 0.007	–
100 kPa, x1 = 0.5979	0.4564 ± 0.0058	–
100 kPa, x1 = 0.7014	0.3861 ± 0.0049	–
100 kPa, x1 = 0.8029	0.3467 ± 0.0044	–
100 kPa, x1 = 0.9039	0.3116 ± 0.004	–
100 kPa, x1 = 0.9486	0.3029 ± 0.0039	–
100 kPa, x2 = 0.0679	0.3219 ± 0.039	0.2901 ± 0.035
100 kPa, x2 = 0.1319	0.3383 ± 0.041	0.3038 ± 0.036
100 kPa, x2 = 0.2357	0.3688 ± 0.044	0.3515 ± 0.042
100 kPa, x2 = 0.3681	0.4378 ± 0.053	0.3916 ± 0.047
100 kPa, x2 = 0.4848	0.5309 ± 0.064	0.4635 ± 0.056
100 kPa, x2 = 0.5884	0.6557 ± 0.079	0.5724 ± 0.069
100 kPa, x2 = 0.6811	0.8015 ± 0.096	0.6603 ± 0.079
100 kPa, x2 = 0.7644	0.998 ± 0.12	0.8293 ± 0.1
100 kPa, x2 = 0.8398	1.172 ± 0.14	0.9551 ± 0.11
100 kPa, x2 = 0.9083	1.427 ± 0.17	1.177 ± 0.14
100 kPa, x2 = 0.9708	1.762 ± 0.21	1.427 ± 0.17
101.33 kPa, x2 = 0.1148	0.34 ± 0.005	–
101.33 kPa, x2 = 0.1407	0.345 ± 0.005	–
101.33 kPa, x2 = 0.2154	0.369 ± 0.005	–
101.33 kPa, x2 = 0.3704	0.451 ± 0.006	–
101.33 kPa, x2 = 0.5278	0.603 ± 0.008	–
101.33 kPa, x2 = 0.6309	0.75 ± 0.01	–
101.33 kPa, x2 = 0.7618	1.038 ± 0.013	–
101.33 kPa, x2 = 0.8626	1.349 ± 0.017	–
101.33 kPa, x2 = 0.9594	1.756 ± 0.023	–

CCCCCOC(C)=O + Cc1ccccc1O
Conditions	viscosity [mPa·s]
298.15 K, 101 kPa, x2 = 0.5	1.165 ± 0.011

Cc1ccccc1O + Cc1ccc(O)cc1
viscosity [mPa·s]
Conditions	298.15 K	313.15 K	323.15 K
101 kPa, x1 = 0.1547	13.27 ± 0.21	–	–
101 kPa, x1 = 0.2999	12 ± 0.18	–	–
101 kPa, x1 = 0.3525	11.63 ± 0.18	–	–
101 kPa, x1 = 0.4233	11.03 ± 0.17	–	–
101 kPa, x1 = 0.5256	10.3 ± 0.15	–	–
101 kPa, x1 = 0.6304	9.612 ± 0.14	–	–
101 kPa, x1 = 0.7573	8.854 ± 0.13	–	–
101 kPa, x1 = 0.875	8.209 ± 0.12	–	–
101.3 kPa, x1 = 0.1	–	6.38 ± 0.077	4.318 ± 0.053
101.3 kPa, x1 = 0.2	–	6.086 ± 0.073	4.147 ± 0.051
101.3 kPa, x1 = 0.3	–	5.766 ± 0.069	3.929 ± 0.048
101.3 kPa, x1 = 0.4	–	5.425 ± 0.065	3.727 ± 0.045
101.3 kPa, x1 = 0.5	–	5.125 ± 0.061	3.555 ± 0.043
101.3 kPa, x1 = 0.6	–	4.847 ± 0.057	3.401 ± 0.041
101.3 kPa, x1 = 0.7	–	4.616 ± 0.054	3.235 ± 0.039
101.3 kPa, x1 = 0.8	–	4.435 ± 0.052	3.112 ± 0.037
101.3 kPa, x1 = 0.9	–	4.3 ± 0.05	3.047 ± 0.036
